Values of other authors in publication PMC6337720 (Inorganic chemistry, 2018).

Conditions: aerated CH3CN

F[P-](F)(F)(F)(F)F.F[P-](F)(F)(F)(F)F.[Ru+2].c1ccc(-c2ccccn2)nc1.c1ccc(-c2ccccn2)nc1.c1ccc(-c2ccccn2)nc1 [[Ru(bpy)3](PF6)2]
ΦΔ singlet oxygen quantum yield of the standard: 0.56
